Results: patent US12545639B2, “3-substituted phenylamidine compounds, preparation and use thereof” (PI INDUSTRIES LTD., priority 2019, dated 2026)

What was measured:
[1] = tested on: Phakopsora pachyrhizi; test: Phakopsora pachyrhizi test in soybean, preventive, in vivo on plants; conditions: in Glycine max, read-out: Efficacy (% control), disease severity compared to the untreated check
[2] = tested on: Alternaria solani; test: Alternaria solani (early blight of tomato/potato) in vitro test, radial growth on potato dextrose agar; assay type: cell-based; conditions: 168 h, 300 ppm in potato dextrose agar, 25° C., 60% relative humidity, seven days, read-out: control compared to the untreated check (radial growth)
[3] = tested on: Rhizoctonia solani; test: Rhizoctonia solani (rice sheath blight/potato black scurf) in vitro test, radial growth on potato dextrose agar; assay type: cell-based; conditions: 168 h, 300 ppm in potato dextrose agar, 25° C., 60% relative humidity, seven days, read-out: control compared to the untreated check (radial growth)
[4] = tested on: Pyricularia oryzae; test: microbe, parasite or virus in culture; assay type: cell-based; conditions: 168 h, read-out: control compared to the untreated check (radial growth)
[5] = tested on: Colletotrichum capsici; test: Colletotrichum capsici (anthracnose) in vitro test, radial growth on potato dextrose agar; assay type: cell-based; conditions: Colletotrichum truncatum, 168 h; 300 ppm in potato dextrose agar; 25° C., 60% relative humidity, seven days; read-out: control compared to the untreated check (radial growth)
[6] = tested on: Septoria lycopersici/Corynespora cassicola (CORYCA); test: Septoria lycopersici/Corynespora cassicola (CORYCA) (leaf spot of tomato) in vitro test, radial growth on potato dextrose agar; assay type: cell-based; conditions: 168 h, 300 ppm in potato dextrose agar, 25° C., 70% relative humidity, seven days, read-out: control compared to the untreated check (radial growth)
[7] = tested on: Botrytis cinerea; test: Botrytis cinerea (gray mold) in vitro test, radial growth on potato dextrose agar; assay type: cell-based; conditions: 168 h, 300 ppm in potato dextrose agar, 22° C., 90% relative humidity, seven days, read-out: control compared to the untreated check (radial growth)

CCN(C)C=Nc1cc(C)cc(Cc2ccc(F)c(F)c2)c1Cl [Compound 67, N′-(2-chloro-3-(3,4-difluorobenzyl)-5-methylphenyl)-N-ethyl-N-methylformimidamide]
≥ 70%: pest or weed control at 500 ppm [1] | inhibition of growth at 300 ppm [2] | inhibition of growth at 300 ppm [3] | inhibition of growth at 300 ppm [4] | inhibition of growth at 300 ppm [5] | inhibition of growth at 300 ppm [6] | inhibition of growth at 300 ppm [7]

CCN(C)C=Nc1cc(C)cc(Nc2cccc(C(C)C)c2)c1Cl [Compound 58, N′-(2-chloro-3-((3-isopropylphenyl)amino)-5-methylphenyl)-N-ethyl-N-methylformimidamide]
≥ 70%: pest or weed control at 500 ppm [1] | inhibition of growth at 300 ppm [2] | inhibition of growth at 300 ppm [3] | inhibition of growth at 300 ppm [4] | inhibition of growth at 300 ppm [5] | inhibition of growth at 300 ppm [6] | inhibition of growth at 300 ppm [7]

CCN(C)C=Nc1cc(C)cc(Nc2ccccc2)c1Cl [Compound 9, N′-(2-chloro-5-methyl-3-(phenylamino)phenyl)-N-ethyl-N-methylformimidamide]
≥ 70%: inhibition of growth at 300 ppm [2] | inhibition of growth at 300 ppm [3] | inhibition of growth at 300 ppm [4] | inhibition of growth at 300 ppm [5] | inhibition of growth at 300 ppm [6] | inhibition of growth at 300 ppm [7]

CCN(C)C=Nc1cc(F)cc(Nc2ccccc2C)c1C [Compound 15, N-ethyl-N′-(5-fluoro-2-methyl-3-(o-tolylamino)phenyl)-N-methylformimidamide]
≥ 70%: inhibition of growth at 300 ppm [2] | inhibition of growth at 300 ppm [3] | inhibition of growth at 300 ppm [4] | inhibition of growth at 300 ppm [5] | inhibition of growth at 300 ppm [6] | inhibition of growth at 300 ppm [7]

CCN(C)C=Nc1cc(F)cc(Nc2cc(Cl)cc(C(F)(F)F)c2)c1C [Compound 161, N′-(3-((3-chloro-5-(trifluoromethyl)phenyl)amino)-5-fluoro-2-methylphenyl)-N-ethyl-N-methylformimidamide]
≥ 70%: pest or weed control at 500 ppm [1] | inhibition of growth at 300 ppm [2] | inhibition of growth at 300 ppm [3] | inhibition of growth at 300 ppm [4] | inhibition of growth at 300 ppm [5] | inhibition of growth at 300 ppm [6] | inhibition of growth at 300 ppm [7]

CCN(C)C=Nc1cc(C)cc(Cc2ccc(Br)c(C)c2)c1Cl [Compound 216, N′-(3-(4-bromo-3-methylbenzyl)-2-chloro-5-methylphenyl)-N-ethyl-N-methylformimidamide]
≥ 70%: pest or weed control at 500 ppm [1] | inhibition of growth at 300 ppm [2] | inhibition of growth at 300 ppm [3] | inhibition of growth at 300 ppm [4] | inhibition of growth at 300 ppm [5] | inhibition of growth at 300 ppm [6] | inhibition of growth at 300 ppm [7]

CCN(C)C=Nc1cc(F)cc(Nc2cccc(Cl)c2)c1C [Compound 37, N′-(3-((3-chlorophenyl)amino)-5-fluoro-2-methylphenyl)-N-ethyl-N-methylformimidamide]
≥ 70%: inhibition of growth at 300 ppm [2] | inhibition of growth at 300 ppm [3] | inhibition of growth at 300 ppm [4] | inhibition of growth at 300 ppm [5] | inhibition of growth at 300 ppm [6] | inhibition of growth at 300 ppm [7]

CCN(C)C=Nc1cc(Cl)cc(Cc2ccccc2F)c1C [Compound 103, N′-(5-chloro-3-(2-fluorobenzyl)-2-methylphenyl)-N-ethyl-N-methylformimidamide]
≥ 70%: pest or weed control at 500 ppm [1] | inhibition of growth at 300 ppm [2] | inhibition of growth at 300 ppm [3] | inhibition of growth at 300 ppm [4] | inhibition of growth at 300 ppm [5] | inhibition of growth at 300 ppm [6] | inhibition of growth at 300 ppm [7]

CCN(C)C=Nc1cc(F)cc(Nc2ccccc2F)c1C [Compound 19, N-ethyl-N′-(5-fluoro-3-((2-fluorophenyl)amino)-2-methylphenyl)-N-methylformimidamide]
≥ 70%: inhibition of growth at 300 ppm [2] | inhibition of growth at 300 ppm [3] | inhibition of growth at 300 ppm [4] | inhibition of growth at 300 ppm [5] | inhibition of growth at 300 ppm [6] | inhibition of growth at 300 ppm [7]

CCN(C)C=Nc1cc(F)cc(N(C)c2cccc(C)c2)c1C [Compound 38, N-ethyl-N′-(5-fluoro-2-methyl-3-(methyl(m-tolyl)amino)phenyl)-N-methylformimidamide]
≥ 70%: pest or weed control at 500 ppm [1] | inhibition of growth at 300 ppm [2] | inhibition of growth at 300 ppm [3] | inhibition of growth at 300 ppm [4] | inhibition of growth at 300 ppm [5] | inhibition of growth at 300 ppm [6] | inhibition of growth at 300 ppm [7]

CCN(C)C=Nc1cc(C)cc(Nc2ccc(F)cc2)c1Cl [Compound 60, N′-(2-chloro-3-((4-fluorophenyl)amino)-5-methylphenyl)-N-ethyl-N-methylformimidamide]
≥ 70%: pest or weed control at 500 ppm [1] | inhibition of growth at 300 ppm [2] | inhibition of growth at 300 ppm [3] | inhibition of growth at 300 ppm [4] | inhibition of growth at 300 ppm [5] | inhibition of growth at 300 ppm [6] | inhibition of growth at 300 ppm [7]

CCN(C)C=Nc1cc(F)cc(Nc2ccc(SC(F)(F)F)cc2)c1C [Compound 16, N-ethyl-N′-(5-fluoro-2-methyl-3-((4-((trifluoromethyl)thio)phenyl)amino)phenyl)-N-methylformimidamide]
≥ 70%: pest or weed control at 500 ppm [1] | inhibition of growth at 300 ppm [2] | inhibition of growth at 300 ppm [3] | inhibition of growth at 300 ppm [4] | inhibition of growth at 300 ppm [5] | inhibition of growth at 300 ppm [6] | inhibition of growth at 300 ppm [7]

CCN(C)C=Nc1cc(F)cc(Cc2cccc(C(F)(F)F)c2)c1C [Compound 201, N-ethyl-N′-(5-fluoro-2-methyl-3-(3-(trifluoromethyl)benzyl)phenyl)-N-methylformimidamide]
≥ 70%: pest or weed control at 500 ppm [1] | inhibition of growth at 300 ppm [2] | inhibition of growth at 300 ppm [3] | inhibition of growth at 300 ppm [4] | inhibition of growth at 300 ppm [5] | inhibition of growth at 300 ppm [6] | inhibition of growth at 300 ppm [7]

CCN(C)C=Nc1cc(F)cc(Cc2ccccc2C(F)(F)F)c1C [Compound 143, N-ethyl-N′-(5-fluoro-2-methyl-3-(2-(trifluoromethyl)benzyl)phenyl)-N-methylformimidamide]
≥ 70%: pest or weed control at 500 ppm [1] | inhibition of growth at 300 ppm [2] | inhibition of growth at 300 ppm [3] | inhibition of growth at 300 ppm [4] | inhibition of growth at 300 ppm [5] | inhibition of growth at 300 ppm [6] | inhibition of growth at 300 ppm [7]

CCN(C)C=Nc1cc(C)cc(Cc2c(F)cccc2F)c1Cl [Compound 91, N′-(2-chloro-3-(2,6-difluorobenzyl)-5-methylphenyl)-N-ethyl-N-methylformimidamide]
≥ 70%: pest or weed control at 500 ppm [1] | inhibition of growth at 300 ppm [2] | inhibition of growth at 300 ppm [3] | inhibition of growth at 300 ppm [4] | inhibition of growth at 300 ppm [5] | inhibition of growth at 300 ppm [6] | inhibition of growth at 300 ppm [7]

CCN(C)C=Nc1cc(Cl)cc(Cc2ccccc2Cl)c1C [Compound 89, N′-(5-chloro-3-(2-chlorobenzyl)-2-methylphenyl)-N-ethyl-N-methylformimidamide]
≥ 70%: pest or weed control at 500 ppm [1] | inhibition of growth at 300 ppm [2] | inhibition of growth at 300 ppm [3] | inhibition of growth at 300 ppm [4] | inhibition of growth at 300 ppm [5] | inhibition of growth at 300 ppm [6] | inhibition of growth at 300 ppm [7]

CCN(C)C=Nc1cc(F)cc(Nc2cccc(C)c2)c1C [Compound 31, N-ethyl-N′-(5-fluoro-2-methyl-3-(m-tolylamino)phenyl)-N-methylformimidamide]
≥ 70%: pest or weed control at 500 ppm [1] | inhibition of growth at 300 ppm [2] | inhibition of growth at 300 ppm [3] | inhibition of growth at 300 ppm [4] | inhibition of growth at 300 ppm [5] | inhibition of growth at 300 ppm [6] | inhibition of growth at 300 ppm [7]

CCN(C)C=Nc1cc(F)cc(Cc2ccc(F)c(C)c2)c1C [Compound 203, N-ethyl-N′-(5-fluoro-3-(4-fluoro-3-methylbenzyl)-2-methylphenyl)-N-methylformimidamide]
≥ 70%: pest or weed control at 500 ppm [1] | inhibition of growth at 300 ppm [2] | inhibition of growth at 300 ppm [3] | inhibition of growth at 300 ppm [4] | inhibition of growth at 300 ppm [5] | inhibition of growth at 300 ppm [6] | inhibition of growth at 300 ppm [7]

CCN(C)C=Nc1cc(C)cc(Nc2cccc(C)c2F)c1Cl [Compound 123, N′-(2-chloro-3-((2-fluoro-3-methylphenyl)amino)-5-methylphenyl)-N-ethyl-N-methylformimidamide]
≥ 70%: pest or weed control at 500 ppm [1] | inhibition of growth at 300 ppm [2] | inhibition of growth at 300 ppm [4] | inhibition of growth at 300 ppm [5] | inhibition of growth at 300 ppm [6] | inhibition of growth at 300 ppm [7]

CCN(C)C=Nc1cc(F)cc(Nc2cc(F)cc(Cl)c2)c1C [Compound 96, N′-(3-((3-chloro-5-fluorophenyl)amino)-5-fluoro-2-methylphenyl)-N-ethyl-N-methylformimidamide]
≥ 70%: inhibition of growth at 300 ppm [2] | inhibition of growth at 300 ppm [3] | inhibition of growth at 300 ppm [4] | inhibition of growth at 300 ppm [5] | inhibition of growth at 300 ppm [6] | inhibition of growth at 300 ppm [7]

CCN(C)C=Nc1cc(C)cc(Nc2ccccc2C)c1Cl [Compound 24, N′-(2-chloro-5-methyl-3-(o-tolylamino)phenyl)-N-ethyl-N-methylformimidamide]
≥ 70%: inhibition of growth at 300 ppm [2] | inhibition of growth at 300 ppm [3] | inhibition of growth at 300 ppm [4] | inhibition of growth at 300 ppm [5] | inhibition of growth at 300 ppm [6] | inhibition of growth at 300 ppm [7]
